This is an account of results in patent publication US9371295B2, “Compounds for use in the treatment of disorders that are ameliorated by inhibition of HDAC” (IRBM—Science Park S.p.A., priority 2012, dated 2016).

pEC50, pIC50: −log10 of the molar value.

The test system of one assay is K562 cells. In words: Antiproliferative effect on K562 cells (cell number after 5 days). Format: cell-based. The following applies: Homo sapiens, 120 h, 5 days culture, average of three experiments. How it is done: The biological activity of the compounds of the present application was evaluated by examining the capacity to modulate the expression of γ-globin genes in the human K562 cell line, which is capable of differentiating in the erythroid manner by expressing genes for γ-globin if treated with modifiers of the biological response that are suitable for the purpose (Bianchi et al, J. Haematol., 113, 4, p. 951-961, 2001). The human K562 cells were cultured in RPMI 1640 medium (Sigma, St Louis, Mo., USA) supplemented with 10% foetal bovine serum (FBS; Analitical de Mori, Milan, Italy), 100 units/mL penicillin and 100 μg/mL streptomycin. Cell growth was determined according to cell number/ml, using a cell counter (Coulter Electronics, Hialeah, Fla., USA). For experiments, K562 cell cultures were initiated at 3×10^4/mL and the chemical inducers at the indicated concentrations added. Following 3-5 days incubation without a medium change erythroid differentiation was determined by staining the cells in a solution containing 0.2% benzidine in 0.5 M glacial acetic acid, 10% H2O2. Benzidine positivity indicates the presence of intracellular Hb.
The erythroid differentiation of K562 cells was investigated following treatment with selected compounds of the invention. The effect on cell proliferation was first determined for all tested molecules by culture of K562 cells in the presence of increasing concentration of the compounds. The cell number per sample was then determined after 3, 4 and 5 days. The IC50 values reported in Table 3 for the antiproliferative effect were calculated from the concentration of the compounds necessary to decrease the cell number to 50% of the values obtained in control untreated K562 cell cultures, after a 5 days culture period. Erythroid differentiation was measured by benzidine staining after 5, 6 and 7 days of cell culture and by quantitative reverse transcriptase polymerase-chain reaction (RT-qPCR) to quantify the expression of γ-globin mRNA. Different concentrations of tested compounds were employed because of their differing antiproliferative effects; accordingly, concentrations were chosen to maximize the erythroid induction effect without extensive reduction of cell viability. In Table 3 the % of benzidine positive cells and the increase in γ-globin mRNA assayed by RT-qPCR after 6 days of culture period are reported.

In another assay the test system is HDAC in Hela cells. In words: HDAC Hela Cell Based assay.
In assay [1] the test system is human γ-globin promoter (EGFP reporter) in K562 cells. Nature of the assay: HbF activation assay on K562 (EGFP/RFP reporter model system for screening of inducers of fetal hemoglobin). Particulars: 60 hours. Format: cell-based. In outline:
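K562 cells stably carrying EGFP under the human γ-globin promoter and far-red FP under the β-globin promoter, with the LCR, were seeded at 1000 cells/well. Cells were exposed to compounds (0.25% DMSO final) for 60 h at 37 °C. Fluorescence was read by plate cytometry, normalized to Hoechst nuclei count, which also indicated proliferation or death.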

By pIC50 is commonly meant the IC50 on a negative log10 scale, so that one unit is a factor of ten. A low value points to a high IC50. The pEC50 is the negative decadic logarithm of the EC50, by convention in mol/L. As for `CCC(=O)CCCCC[C@H](NC(=O)C1CN(C)C1)c1ncc(-c2cc3ccccc3nc2OC)o1` [Compound 2, (S)-N-(1-(5-(2-methoxyquinolin-3-yl)oxazol-2-yl)-7-oxononyl)-1-methylazetidine-3-carboxamide], the pIC50 was 7.12 in the assay on K562 cells and greater than 7.00 with HDAC in Hela cells. In assay [1], the pEC50 is 6.00 to 7.00.

`CCC(=O)CCCCC[C@H](NC(=O)C(=O)N1CCN(C)CC1)c1ncc(-c2cc3ccccc3nc2OC)o1` [Compound 37, (S)-N-(1-(5-(2-methoxyquinolin-3-yl)oxazol-2-yl)-7-oxononyl)-2-(4-methylpiperazin-1-yl)-2-oxoacetamide]: the negative logarithm of the IC50 (pIC50) in the assay with K562 cells is 6.22; in the assay on HDAC in Hela cells, 6.00 to 7.00. The compound also showed a pEC50 in assay [1] of less than 6.00.

As to `CCC(=O)CCCCC[C@H](NC(=O)C1(F)CN(C)C1)c1ncc(-c2cc3ccccc3nc2OC)o1` [Compound 67, (S)-3-fluoro-N-(1-(5-(2-methoxyquinolin-3-yl)oxazol-2-yl)-7-oxononyl)-1-methylazetidine-3-carboxamide], the pIC50 with K562 cells is 6.02; in the assay with HDAC in Hela cells it was 6.00 to 7.00. This compound also had a pEC50 in assay [1] of less than 6.00.

`CCC(=O)CCCCC[C@H](NC(=O)Cn1nc(C)nc1C)c1ncc(-c2cc3ccccc3nc2OC)o1` [Compound 80, (S)-2-(3,5-dimethyl-1H-1,2,4-triazol-1-yl)-N-(1-(5-(2-methoxyquinolin-3-yl)oxazol-2-yl)-7-oxononyl)acetamide]: the values for the pIC50 in the assay with K562 cells and in the assay with HDAC in Hela cells were 6.60 and 6.00 to 7.00, respectively. The negative-log EC50 (pEC50) in assay [1] is 6.00 to 7.00.

Turning to `CCC(=O)CCCCC[C@H](NC(=O)c1cnc(CN2CCCC2)s1)c1ncc(-c2cc3ccccc3nc2OC)o1` [Compound 82, (S)-N-(1-(5-(2-methoxyquinolin-3-yl)oxazol-2-yl)-7-oxononyl)-2-(pyrrolidin-1-ylmethyl)thiazole-5-carboxamide], the pIC50 is less than 6.40 with K562 cells and greater than 7.00 in the assay on HDAC in Hela cells. The pEC50 in assay [1] was 6.00 to 7.00.

Turning to `CCC(=O)CCCCC[C@H](NC(=O)C1CN(C)C1)c1ncc(-c2cc3ccccc3n(C)c2=O)o1` [Compound 92, (S)-1-methyl-N-(1-(5-(1-methyl-2-oxo-1,2-dihydroquinolin-3-yl)oxazol-2-yl)-7-oxononyl)azetidine-3-carboxamide], the values for the pIC50 in the assay on K562 cells and in the assay with HDAC in Hela cells were 7.30 and greater than 7.00, respectively. The compound also showed a pEC50 in assay [1] of 6.00 to 7.00.

As for `CCC(=O)CCCCC[C@H](NC(=O)CCN(C)C)c1ncc(-c2cc3ccccc3n(C)c2=O)o1` [Compound 106, (S)-3-(dimethylamino)-N-(1-(5-(1-methyl-2-oxo-1,2-dihydroquinolin-3-yl)oxazol-2-yl)-7-oxononyl)propanamide], the pIC50 with K562 cells is 7.39; in the assay on HDAC in Hela cells, greater than 7.00. The pEC50 in assay [1] is greater than 7.00.

In the case of `CCC(=O)CCCCC[C@H](NC(=O)C(C)(C)N(C)C)c1ncc(-c2cc3ccccc3n(C)c2=O)o1` [Compound 107, (S)-2-(dimethylamino)-2-methyl-N-(1-(5-(1-methyl-2-oxo-1,2-dihydroquinolin-3-yl)oxazol-2-yl)-7-oxononyl)propanamide], the pIC50 was 7.62 with K562 cells and greater than 7.00 in the assay on HDAC in Hela cells. This compound also showed a pEC50 in assay [1] greater than 7.00.

`CCC(=O)CCCCC[C@H](NC(=O)C1CCN(C)CC1)c1ncc(-c2cc3ccccc3n(C)c2=O)o1` [Compound 109, (S)-1-methyl-N-(1-(5-(1-methyl-2-oxo-1,2-dihydroquinolin-3-yl)oxazol-2-yl)-7-oxononyl)piperidine-4-carboxamide]: the pIC50 with K562 cells was less than 7.30; in the assay on HDAC in Hela cells it was greater than 7.00. Besides, the pEC50 in assay [1] was 6.00 to 7.00.

Take `CCC(=O)CCCCC[C@H](NC(=O)c1cncs1)c1ncc(-c2cc3ccccc3n(C)c2=O)o1` [Compound 110, (S)-N-(1-(5-(1-methyl-2-oxo-1,2-dihydroquinolin-3-yl)oxazol-2-yl)-7-oxononyl)thiazole-5-carboxamide]: the figures for the pIC50 in the assay with K562 cells and in the assay on HDAC in Hela cells were 6.70 and greater than 7.00, respectively. In assay [1], this compound had a pEC50 of 6.00 to 7.00.

In the case of `CCC(=O)CCCCC[C@H](NC(=O)C1(N(C)C)CCCC1)c1ncc(-c2cc3ccccc3n(C)c2=O)o1` [Compound 111, (S)-1-(dimethylamino)-N-(1-(5-(1-methyl-2-oxo-1,2-dihydroquinolin-3-yl)oxazol-2-yl)-7-oxononyl)cyclopentanecarboxamide], the pIC50 in the assay on K562 cells was 7.33; with HDAC in Hela cells, greater than 7.00. This compound showed a pEC50 in assay [1] greater than 7.00.
